# Measured values published in patent US20240391900A1, “RIP1 KINASE INHIBITOR AND USE THEREOF” (SIRONAX (BEIJING) CO., LTD., priority 2021, published 2024).
# Assays:
# [1] = in vivo; cited from earlier work
# [2] = tested on: HT-29 human colon cancer cells; test: In vitro biological activity assay: inhibition of TNFα/SmacM/Z_VAD FMK-induced programmed necrosis, CellTiter-Glo viability; assay type: cell-based; settings: HT-29 cells, necrosis induced with TNF-α 100 ng/mL, SmacM 100 nM, Z_VAD-FMK 10 μM, overnight, cell viability by chemiluminescence
# Method: In order to verify the inhibitory effect of the compounds of the present disclosure on programmed necrosis at the cellular level, a type of cells closely related to the RIP1 pathway, namely HT-29 human colon cancer cells, were selected. The used activation mode is a combination of tumor necrosis factor (TNFα), cysteine aspartate activator mimic (SmacM) and pan-caspase inhibitor Z_VAD FMK, and the cell viability was calculated by detecting chemiluminescence values, thus obtaining the biological activity of the compound inhibiting the programmed necrosis of cells.
# Cell line: HT-29 (ATCC® HTB-38™)
# • 2.1. The Growth Status of HT-29 Cells was Regularly Checked to Ensure their Normal Growth. • 2.2. McCOY's 5A culture medium containing 10% FBS was preheated in a 37° C. water bath for 30 minutes. When the culture medium was ready for use, the cell passage and inoculation was performed in a Class II safety cabinet with aseptic technique. • 2.3. In a T75 culture flask, when the growth density of cells reached the abundance of approximately 80%, the culture medium was aspirated and cells were washed twice with pre-warmed PBS. • 2.4. 2-3 mL of trypsin (Gibco, catalog number 25200-056) was added and the T75 culture flask was transferred to a 37° C. incubator. • 2.5. After 3-5 minutes, the side of the culture flask was tapped and examined under a microscope for detachment of the cells to the flask. If necessary, the cells were placed back into the incubator to wait for another 5-10 minutes until 85% of the cells were detached from each other. • 2.6. 6-9 mL of complete cell culture medium was quickly added to terminate the trypsin reaction, and then the cells were transferred to a sterile 15 mL centrifuge tube. The cells were pelleted by centrifugation at 300 g for 5-7 minutes in a centrifuge, and then the supernatant was decanted. • 2.7. The cells were resuspended in 10 mL of fresh cell culture medium and the cells were counted by using a hemocytometer. • 2.8. 3,000 cells contained in 100 μL were inoculated into each well of a sterile 96-well cell culture plate (Corning 3903) and cultured overnight at 37° C. under 5% CO2.
# • 3.1. All batches of compounds were dissolved in dimethyl sulfoxide (DMSO) to prepare a 20 mM stock. • 3.2. 3 μL of 20 mM stock of each compound was added to 27 μL of DMSO and mixed thoroughly, and then diluted at a dilution ratio of […] (20 μL compound+40 μL DMSO) until the 10-12 points ended. After the compounds were diluted, they were set aside for use. • 3.3. The cell culture plate was taken out from the incubator, washed once with PBS, and replaced with a fresh culture medium free of serum. A mixture of TNF-α (100 ng/mL), SMAC mimic (SmacM, 100 nM) and Z_VAD-FMK (10 μM) was added to induce the programmed necrosis in HT-29 cells. • 3.4. The compound dilution plate was prepared, 0.5 μL of the diluted compound was added to the corresponding 96-well plate, and mixed gently. Two duplicate wells were prepared for each compound. • 3.5. The treated 96-well plate to which the compounds had been added was placed back into the 37° C. incubator containing 5% CO2 and incubated overnight.
# The luminescence cell viability detection kit was used to calculate the activity of the compound by measuring the ATP content in viable cells. • 4.1. The CellTiter-Glo® buffer and dry powdered substrate were equilibrated to room temperature before use. • 4.2. The CellTiter-Glo® substrate was resuspended with Cell Titer-Glo® buffer, then homogeneously mixed by gently vortexing. • 4.3. The cell culture plate was taken out and equilibrated at room temperature for 10 minutes (usually not suitable if more than 30 minutes). • 4.4. 20 μL of enzyme/substrate mixture was added into the 96-well assay plate with a multi-channel pipettor. • 4.5. The 96-well assay plate was placed on a shaker and the content was mixed for 2-3 minutes to promote the cell lysis. • 4.6. […]
# [3] = Rapid brain distribution assay (LC-MS/MS, brain tissue/plasma ratio); assay type: in vivo; settings: mouse, ip, CD1 mice, intraperitoneal, grouped compounds, brain tissue and plasma taken one hour after administration, read-out: B/P
# Method: The contents in plasma and tissue samples were measured by LC-MS/MS to obtain the ratio of the concentration in the brain tissue sample to that in the plasma sample, and compounds with blood-brain penetration could be quickly screened.
# • 3.1. A group of compounds (usually 3-4 compounds, the molecular weight difference between each other was greater than 5), weighing 1-2 mg of each compound, were added into the same 4 mL weighing bottle. • 3.2. A mixed solvent of 10% DMSO+20% polyethylene glycol-15-hydroxystearate+70% H2O was used to prepare each group to a volume of 1.5 mL-2 mL. • 3.3. The mixture was ultrasonically vortexed until a homogeneous solution was obtained for intraperitioneal administration.
# • 4.1. Three CD1 mice were prepared for each group and weighed. • 4.2. The administration volume was 10 mL/kg, and the mice were administered intraperitoneally. • 4.3. Timing was started after administration, and plasma samples and brain tissue samples were taken one hour later. • 4.4. The brain tissue sample was weighed, and then 4 fold volume of physiological saline was added. The resulting mixture was homogenized, and frozen at −20° C. until analysis.
# • 5.1. The exact molecular weight of a compound was found from the compound information table. • 5.2. The corresponding parent ions and fragment ions were found, and the mass spectrometry condition and the liquid phase (chromatography) method were optimized to find the appropriate condition and method.
# • 6.1. Plasma sample (5-fold dilution): 10 μL of the plasma sample was taken, and 40 μL of the blank plasma sample and 50 μL of the corresponding blank tissue sample were added. • 6.2 Tissue sample processing: 50 μL of the tissue sample (brain, kidney, liver and the like) was taken, and 50 μL of the blank plasma sample was added. • 6.3. The above tissue sample and the diluted plasma sample were taken, and 500 μL of the internal standard solution was added to precipitate the protein. The resulting mixture was vortexed for 2 minutes, stored by freezing at −20° C. for 1 hour and centrifuged at 3800 rpm for 15 minutes at 4° C. The supernatant was taken, 5-fold diluted with 50% MeOH, and then vortexed for 2 minutes, ready for measurement.
# The sample was detected by using an appropriate LC-MS/MS method.
# Distribution ratio of tissue/plasma=(peak area of compound in tissue/peak area of internal standard)/(peak area of compound in plasma/peak area of internal standard)
# mouse L929 cells = settings: read-out: IC50, blocking programmed necrosis; cited from earlier work
# TNF-induced shock model = settings: mice; cited from earlier work
# human U937 cells = settings: read-out: IC50, blocking programmed necrosis; cited from earlier work
SMILES,EC50 [2] [nM],Kp at 1 h [3],other results
CN1C(=O)[C@@H](NC(=O)c2nnc(Cc3ccccc3)[nH]2)COc2ccccc21 [GSK2982772],–,–,brain tissue distribution [1]: low brain tissue distribution
Nc1ncc(C#Cc2cncc(-n3cc4c(n3)[C@H](c3ccccc3)CC4)c2)s1 [Compound 31],≤ 100,2.38,–
CC(C)(C)C(=O)N1N=CC[C@H]1c1ccccc1 [GSK′963],–,–,IC50 (mouse L929 cells): 1 nM; effect on hypothermia (TNF-induced shock model): effectively inhibit hypothermia; IC50 (human U937 cells): 4 nM
Nc1ncc(C#Cc2cncc(-n3cc4c(n3)[C@H](c3ccccc3)CC4)c2)cn1 [Compound 14],≤ 100,2.92,–
"Nc1ncc(C#Cc2cncc(-n3nc4n(c3=O)CCC4c3ccccc3)c2)cn1 (stereo not drawn) [Compound 52, 2-(5-((2-aminopyrimidin-5-yl)ethynyl)pyridin-3-yl)-7-phenyl-2,5,6,7-tetrahydro-3H-pyrrolo[2,1-c][1,2,4]triazole-3-one]",≤ 100,1.1,–
"Cn1c(-n2nc3c(n2)C(c2ccccc2)CC3)cc(C#Cc2cnc(N)nc2)cc1=O (stereo not drawn) [Compound 57, 4-((2-aminopyrimidin-5-yl)ethynyl)-1-methyl-6-(4-phenyl-5,6-dihydrocyclopenta[d][1,2,3]triazol-2 (4H)-yl)pyridine-2 (1H)-one]",≤ 100,2.16,–
"Nc1ncc(C#Cc2cc(-n3cc4c(n3)C(c3ccccc3)CC4)ncn2)cn1 (stereo not drawn) [Compound 9, 5-((6-(6-phenyl-5,6-dihydrocyclopenta[c]pyrazol-2 (4H)-yl)pyrimidine-4-yl)ethynyl)pyrimidin-2-amine]",100 to 1000,2.85,–
C(#Cc1cnc2cccnn12)c1cccc(-n2cc3c(n2)C(c2ccccc2)CC3)c1 (stereo not drawn) [Compound 5],≤ 100,0.75,–
"NC(=O)c1ncc(C#Cc2cncc(-n3cc4c(n3)C(c3ccccc3)CC4)c2)cn1 (stereo not drawn) [Compound 10, 5-((5-(6-phenyl-5,6-dihydrocyclopenta[c]pyrazol-2 (4H)-yl)pyridin-3-yl)ethynyl)pyrimidine-2-carboxamide]",> 1000,1.34,–
"Cc1ncc(C#Cc2cnc(N)nc2)cc1-n1cc2c(n1)C(c1ccccc1)CC2 (stereo not drawn) [Compound 42, 5-((6-methyl-5-(6-phenyl-5,6-dihydrocyclopenta[c]pyrazol-2 (4H)-yl)pyridin-3-yl)ethynyl)pyrimidin-2-amine]",≤ 100,2.45,–
"Cn1c(-n2cc3c(n2)C(c2ccccc2)CC3)cc(C#Cc2cnc(N)nc2)cc1=O (stereo not drawn) [Compound 4, 4-((2-aminopyrimidin-5-yl)ethynyl)-1-methyl-6-(6-phenyl-5,6-dihydrocyclopenta[c]pyrazol-2 (4H)-yl)pyridine-2 (1H)-one]",≤ 100,1.44,–
Cc1c2c(nn1-c1cncc(C#Cc3cnc(N)nc3)c1)C(c1ccccc1)CC2 (stereo not drawn) [Compound 40],≤ 100,1.61,–
"Nc1ncc(C#Cc2cncc(-n3nc4c(n3)C(c3ccccc3)CC4)c2)cn1 (stereo not drawn) [Compound 54, 5-((5-(4-phenyl-5,6-dihydrocyclopenta[d][1,2,3]triazol-2 (4H)-yl)pyridine-3-yl)ethynyl)pyrimidin-2-amine]",≤ 100,1.44,–
"C(#Cc1cncc(-n2cc3c(n2)C(c2ccccc2)CC3)c1)c1ccccc1 (stereo not drawn) [Compound 30, 6-phenyl-2-(5-(phenylethynyl)pyridin-3-yl)-2,4,5,6-tetrahydrocyclopenta[c]pyrazole]",> 1000,0.429,–
"C(#Cc1cnc2cccnn12)c1cncc(-n2cc3c(n2)C(c2ccccc2)CC3)c1 (stereo not drawn) [Compound 6, 3-((5-(6-phenyl-5,6-dihydrocyclopenta[c]pyrazol-2 (4H)-yl)pyridin-3-yl)ethynyl)imidazo[1,2-b]pyridazine]",≤ 100,1.24,–
"C(#Cc1cnc2cccnn12)c1ccnc(-n2cc3c(n2)C(c2ccccc2)CC3)n1 (stereo not drawn) [Compound 7, 3-((2-(6-phenyl-5,6-dihydrocyclopenta[c]pyrazol-2 (4H)-yl)pyrimidine-4-yl)ethynyl)imidazo[1,2-b]pyridazine]",100 to 1000,0.12,–
"Cc1ncc(C#Cc2cn[nH]c2)cc1-n1nc2c(n1)C(c1ccccc1)CC2 (stereo not drawn) [Compound 66, 2-(5-((1H-pyrazole-4-yl)ethynyl)-2-methylpyridin-3-yl)-4-phenyl-2,4,5,6-tetrahydrocyclopenta[d][1,2,3]triazole]",≤ 100,3.62,–
Cn1c(-n2nc3c(n2)C(c2cccnc2)CC3)cc(C#Cc2cnc(N)nc2)cc1=O (stereo not drawn) [Compound 62],≤ 100,0.388,–
